From patent publication US11242327B2, “Analgesic compounds” (RECURIUM IP HOLDINGS, LLC, priority 2017, dated 2022)
Structures can show the parent of a compound that is named as a salt. Where two headings read alike, the source gives them in different places.

Tests used:
Format in all cases: in vivo
[1] = tested on: male Sprague-Dawley rats; experiment: Formalin Paw Test, rat, oral; details: 30 mg/kg; for Early Phase, seconds of paw licking: early/acute phase (0-10 minutes); for Late Phase, seconds of paw licking: late/tonic phase (10-35 minutes)
Method: One test compound or the vehicle was administered to each rat or mouse in each test group (8 rats or mice per group). Non-fasted male Sprague-Dawley rats weighing 200-225 g or non-fasted male ICR mice weighing 23±3 g were used. […] Responses were measured every 5 minutes after the formalin injection for 35 minutes. The results in Table 2 are for oral administration in rat and the results in Table 3 are for intraperitoneal administration in mouse. In Tables 2 and 3, 'A' designates <70 seconds of paw licking, 'B' designates >70 and <165 seconds of paw licking, and 'C' designates >165 seconds of paw licking.

[2] = tested on: male Sprague-Dawley rats; experiment: UVB Inflammatory Pain Test (thermal hyperalgesia); details: rat, oral; for paw withdrawal latency, 1 h: 1 h after dosing; for paw withdrawal latency, 2 h: 2 h after dosing; for paw withdrawal latency, 4 h: 4 h after dosing
Method: UVB irradiation to the surface of the hind paw was used to induce cutaneous inflammatory pain in non-fasted male Sprague-Dawley rats weighing 175-300 g. On Day −3, animals were restrained and the plantar surface of the left hind paw was exposed to 350 mJoules/cm^2 of UVB irradiation using a narrow band UVB light source (Daavlin®, Bryan, Ohio). Following UVB irradiation, animals were returned to their home cage. Thermal hyperalgesia was assessed prior to dosing and approximately 1, 2, and 4 hours after dosing on Day 0 using a radiant heat plantar test apparatus (IITC Life Sciences©; Woodland Hills, Calif.). Animals were placed in individual acrylic chambers on a glass platform warmed to 30±2° C. and allowed to acclimate to their surroundings for a minimum of 15 minutes before testing. The stimulus was presented to the plantar surface and the timer was activated. The stimulus intensity was set such that pre-injury paw withdrawal latencies were approximately 12-18 seconds. Paw withdrawal latency values were recorded at the first observed nocifensive behavior (paw withdrawal, flinching, biting and/or licking). Three paw withdrawal latencies were measured for each hind paw per time point. The mean of the 3 values was taken as the paw withdrawal latency for that time point. A maximum cutoff latency of 30 seconds was used to prevent injury to the animal. The mean and standard error of the mean (SEM) were determined for each paw for each treatment group at each time point. Test compounds were administered orally at concentrations of 3, 10, 30 or 100 mg/kg; celecoxib was administered orally at a concentration of 30 mg/kg; and acetaminophen was administered orally at a concentration of 300 mg/kg. The control group received the vehicle (sterile water). In Table 4, ‘A’ designates >8 seconds of paw withdrawal latency, ‘B’ designates >6 and <8 seconds of paw withdrawal latency, and ‘C’ designates <6 seconds of paw withdrawal latency.
The results provided in Table 4 are for oral administration in rats. […] Furthermore, while acetaminophen was dosed at 300 mg/kg, compounds of Formulae (Ie), (Ih) and (Ik), or a pharmaceutically acceptable salt of any of the foregoing, were dosed at 3 mg/kg, 10 mg/kg and 100 mg/kg.

[3] = Bioavailability Test (rat pharmacokinetics); details: for F: PO 30 mg/kg vs IV 3 mg/kg; for Vd: read-out: Vdss
Method: Oral bioavailability of compounds of Formulae (Ie), (Ih), (Ik), and (Ir), or a pharmaceutically acceptable salt of any of the foregoing, were evaluated in fasted male Sprague-Dawley (SD) rats weighing 200-225g. Compounds were dosed at 3 mg/kg (IV) and 30 mg/kg (PO). Unless otherwise noted, compounds were dissolved in 0.9% saline for IV dosing and 100% sterile water for PO dosing. Pharmacokinetic parameters were determined using Phoenix WinNonlin (v7.0). […]

[4] = tested on: male Sprague-Dawley rats; experiment: Spinal Nerve Ligation (SNL) Neuropathic Pain Test; details: rat, oral, 100 mg/kg
Method: Neuropathy was induced in non-fasted male Sprague-Dawley rats weighing 75-100 g by surgically ligating the 4th and 5th lumbar spinal nerves (L4 and L5), a procedure also known as spinal nerve ligation (SNL). Animals were placed in individual acrylic chambers on a metal mesh surface and allowed to acclimate to their surroundings for a minimum of 15 minutes before testing. Mechanical sensitivity was assessed using 8 Semmes-Weinstein filaments (Stoelting©; Wood Dale, Ill., USA) with varying stiffness (0.4, 0.6, 1.0, 2.0, 4.0, 6.0, 8.0, and 15 g) according to an up-down method to determine 50% response thresholds. Each filament was presented perpendicular to the plantar surface with sufficient force to cause slight buckling against the paw and held for approximately 6 seconds or until a positive response is noted (paw sharply withdrawn). Testing was initiated with the 2.0 g filament. In the absence of a paw withdrawal response, the next stronger stimulus was presented. In the event of paw withdrawal, the next weaker stimulus was used. This process was repeated until 4 responses after the initial change in response (no response to positive response or positive response to no response) were obtained. […] The 50% response threshold was calculated using the formula: 50% response threshold (g)=(10^(Xf+kδ))/10,000;
Xf=value (in log units) of the final von Frey filament used;
k=tabular value for the pattern of positive/negative responses (See Chaplan, et al. “Quantitative Assessment of Tactile Allodynia in the Rat Paw” J. Neurosci. Meth. 53.1 (1994): 56-63);
[…] =mean difference (in log units) between stimuli.
The mean and standard error of the mean (SEM) were determined for each paw for each treatment group at each time point. Thresholds were determined prior to surgery and again 14 days later. After 14 days, test or control compounds were administered and thresholds were again determined 1, 2, and 4 hours after compound administration. Median response thresholds in compound-treated animals were compared to those in vehicle treated animals to determine anti-allodynic efficacy of test and control compounds. Test compounds were administered orally at concentrations of 10, 30 or 100 mg/kg and gabapentin was administered orally at a concentration of 100 mg/kg. The control group received the vehicle (sterile water). In Table 7, ‘A’ designates a 50% threshold of ≥8 grams, ‘B’ designates a 50% threshold of ≥6 and <8 grams, and ‘C’ designates a 50% threshold of <6 grams.
The results provided in Table 7 are for oral administration in rats.

[5] = tested on: male Sprague-Dawley rats; experiment: Post-Incisional (Brennan) Pain Test; details: rat, subcutaneously, 10 mg/kg
Method: Incisional pain was induced in non-fasted male Sprague-Dawley rats weighing 180-300 g by making a 1-cm plantar incision in the left hind paw and is designed to mimic pain and sensitivity similar to what is reported by patients after surgery. Dosing occurred at the time of incision and spontaneous pain was measured 4 and 24 hours post-dosing using a cumulative pain score. The unrestrained animals were placed on a metal mesh platform and allowed to acclimate for about 15 min/ Each animal was closely observed during a 1-min period repeated every 5 min for 1 h (12 times total). Depending on the position in which the foot was found during the scoring period, a score of 0, 1, or 2 was given. Full weight bearing of the foot (score=0) was present if the skin on the plantar surface of the paw wound was blanched or distorted by the mesh. If the foot was completely off the mesh, or one or more instances of licking or flinching was observed, a score of 2 was recorded and the licking or flinching was noted but not counted. If the plantar surface of the paw touched the mesh without blanching or distorting, a score of 1 was given. The sum of the 12 scores obtained during the 1 h session was calculated (maximum score=24) for each animal. Observations were made during hours 4 and 24. Test articles were administered orally at concentrations of 10, 30 or 100 mg/kg and ketoprofen was administered subcutaneously at a concentration of 10 mg/kg. The control group received the vehicle (sterile water). In Table 6, ‘A’ designates a cumulative pain score of ≤11, ‘B’ designates >11 and ≤16, and ‘C’ designates >16.
The results provided in Table 6 are for oral administration in rats.

[6] = male, Sprague-Dawley, in vivo, IV 3 mg/kg, 0.9% saline
[7] = male, Sprague-Dawley, in vivo, PO 30 mg/kg, sterile water
[8] = male, Sprague-Dawley, in vivo, IV 3 mg/kg, DMSO, PEG400, and 30% HPβCD (5/20/75)
[9] = male, Sprague-Dawley, in vivo, PO 30 mg/kg, PEG400, PVP, Tween 80, 0.5% CMC in water (9/0.5/0.5/90)

SMILES	Early Phase, seconds of paw licking [1]	Late Phase, seconds of paw licking [1]	paw withdrawal latency, 1 h ([2]; 3 mg/kg)	paw withdrawal latency, 2 h ([2]; 3 mg/kg)	paw withdrawal latency, 4 h ([2]; 3 mg/kg)	paw withdrawal latency, 1 h ([2]; 10 mg/kg)	paw withdrawal latency, 2 h ([2]; 10 mg/kg)	paw withdrawal latency, 4 h ([2]; 10 mg/kg)	paw withdrawal latency, 1 h ([2]; 30 mg/kg)	paw withdrawal latency, 2 h ([2]; 30 mg/kg)	paw withdrawal latency, 4 h ([2]; 30 mg/kg)	paw withdrawal latency, 1 h ([2]; 100 mg/kg)	paw withdrawal latency, 2 h ([2]; 100 mg/kg)	paw withdrawal latency, 4 h ([2]; 100 mg/kg)	F [3]	AUC(0-inf) [3, 6]	clearance [3, 6]	half-life [3, 6]	Vd [3, 6]	AUC(0-inf) [3, 7]	further results
Cl.O=C(O)CNC12CC(C(F)(F)F)(C1)C2 [Compound 6, (3-(trifluoromethyl)bicyclo[1.1.1]pentan-1-yl)glycine hydrochloride]	A (<70 seconds of paw licking)	B (>70 and <165 seconds of paw licking)	C (<6 seconds of paw withdrawal latency)	B (>6 and <8 seconds of paw withdrawal latency)	A (>8 seconds of paw withdrawal latency)	B (>6 and <8 seconds of paw withdrawal latency)	B (>6 and <8 seconds of paw withdrawal latency)	B (>6 and <8 seconds of paw withdrawal latency)	A (>8 seconds of paw withdrawal latency)	B (>6 and <8 seconds of paw withdrawal latency)	B (>6 and <8 seconds of paw withdrawal latency)	A (>8 seconds of paw withdrawal latency)	A (>8 seconds of paw withdrawal latency)	B (>6 and <8 seconds of paw withdrawal latency)	134%	1.8 µM·h	121 mL/min/kg	0.15 h	0.79 L/kg	29 µM·h	Cmax [3, 7]: 32 µM; Tmax [3, 7]: 0.22 h; half-life [3, 7]: 1.6 h
O=C(CO)NC12CC(C(F)(F)F)(C1)C2 [Compound 7, 2-Hydroxy-N-(3-(trifluoromethyl)bicyclo[1.1.1]pentan-1-yl)acetamide]	A (<70 seconds of paw licking)	B (>70 and <165 seconds of paw licking)	B (>6 and <8 seconds of paw withdrawal latency)	B (>6 and <8 seconds of paw withdrawal latency)	B (>6 and <8 seconds of paw withdrawal latency)	C (<6 seconds of paw withdrawal latency)	C (<6 seconds of paw withdrawal latency)	B (>6 and <8 seconds of paw withdrawal latency)	B (>6 and <8 seconds of paw withdrawal latency)	B (>6 and <8 seconds of paw withdrawal latency)	B (>6 and <8 seconds of paw withdrawal latency)	C (<6 seconds of paw withdrawal latency)	C (<6 seconds of paw withdrawal latency)	B (>6 and <8 seconds of paw withdrawal latency)	138%	9 µM·h	27 mL/min/kg	2.3 h	2.5 L/kg	119 µM·h	Cmax [3, 7]: 67 µM; Tmax [3, 7]: 0.19 h; half-life [3, 7]: 2.5 h
CC(F)(F)c1csc(C23CC(N)(C2)C3)n1 [Compound 25, 3-(4-(1,1-difluoroethyl)thiazol-2-yl)bicyclo[1.1.1]pentan-1-amine hydrochloride]	A (<70 seconds of paw licking)	A (<70 seconds of paw licking)	–	–	–	–	–	–	–	–	–	–	–	–	–	–	–	–	–	–	F ([3]; vehicles of footnote a): 115%; AUC(0-inf) [3, 8]: 13 µM·h; clearance [3, 8]: 17 mL/min/kg; half-life [3, 8]: 3.7 h; Vd [3, 8]: 3.2 L/kg; Cmax [3, 9]: 24 µM; Tmax [3, 9]: 1.2 h; AUC(0-t) ([3]; male, Sprague-Dawley, in vivo, PO 30 mg/kg, PEG400, PVP, Tween 80, 0.5% CMC in water (9/0.5/0.5/90), read-out: AUC24h): 144 µM·h
NCC1(CC(=O)O)CCCCC1 [Gabapentin, reference compound]	–	–	–	–	–	–	–	–	–	–	–	–	–	–	–	–	–	–	–	–	50% response threshold, 1 h ([4]; 1 h after administration): B (a 50% threshold of ≥6 and <8 grams); 50% response threshold, 2 h ([4]; 2 h after administration): A (a 50% threshold of ≥8 grams); 50% response threshold, 4 h ([4]; 4 h after administration): A (a 50% threshold of ≥8 grams)
CC(C(=O)O)c1cccc(C(=O)c2ccccc2)c1 (stereo not shown) [Ketoprofen, reference compound]	–	–	–	–	–	–	–	–	–	–	–	–	–	–	–	–	–	–	–	–	cumulative pain score, 4 h ([5]; 4 h post-dosing): B (>11 and ≤16); cumulative pain score, 24 h ([5]; 24 h post-dosing): A (a cumulative pain score of ≤11)
